Data: ChEMBL document CHEMBL1765088, “5-Benzamidoisoquinolin-1-ones and 5-(ω-carboxyalkyl)isoquinolin-1-ones as isoform-selective inhibitors of poly(ADP-ribose) polymerase 2 (PARP-2)” (J Med Chem, 2011)
Where “and” joins values, the source holds several entries; their conditions need not be identical. Equal values may be shown once.

Tests used:
[1] = molecular target: Poly [ADP-ribose] polymerase 2 (Mus musculus, UniProt O88554); assay: Inhibition of recombinant full length mouse PARP-2 after 10 mins using [3H]NAD+ by solution-phase assay
Poly [ADP-ribose] polymerase 2, sequence (O88554 whole entry): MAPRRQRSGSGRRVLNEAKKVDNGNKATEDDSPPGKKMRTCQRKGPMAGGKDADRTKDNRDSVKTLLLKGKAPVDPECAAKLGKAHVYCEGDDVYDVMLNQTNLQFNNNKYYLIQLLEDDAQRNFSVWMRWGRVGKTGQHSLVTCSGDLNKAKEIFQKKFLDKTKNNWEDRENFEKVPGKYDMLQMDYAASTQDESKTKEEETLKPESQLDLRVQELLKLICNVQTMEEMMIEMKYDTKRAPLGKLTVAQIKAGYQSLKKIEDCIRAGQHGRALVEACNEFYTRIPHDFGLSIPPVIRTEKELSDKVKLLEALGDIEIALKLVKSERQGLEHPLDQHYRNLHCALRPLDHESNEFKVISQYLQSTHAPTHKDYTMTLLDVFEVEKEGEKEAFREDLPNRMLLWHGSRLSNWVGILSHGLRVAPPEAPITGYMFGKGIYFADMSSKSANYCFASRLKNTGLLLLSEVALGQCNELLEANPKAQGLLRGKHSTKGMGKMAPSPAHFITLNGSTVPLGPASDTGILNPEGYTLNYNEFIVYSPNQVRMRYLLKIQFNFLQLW

[2] = Selectivity ratio, ratio of IC50 for full length human PARP-1 to IC50 for recombinant full length mouse PARP-2
[3] = Selectivity for recombinant full length mouse PARP-2 over full length human PARP-1
[4] = Growth inhibition of human FEK4 cells after 7 days by MTS assay; conditions: FEK4, 168 h
MDA-MB-231 = assay: Growth inhibition of human MDA-MB-231 cells after 7 days by MTS assay; conditions: MDA-MB-231, 168 h
LNCaP = assay: Growth inhibition of human LNCAP cells after 7 days by MTS assay; conditions: 168 h
HT-29 = assay: Growth inhibition of human HT-29 cells after 7 days by MTS assay; conditions: HT-29, 168 h
[5] = molecular target: Poly [ADP-ribose] polymerase 1 (Homo sapiens, UniProt P09874); assay: Inhibition of full length human PARP-1 after 10 mins by FlashPlate scintillation proximity assay
Poly [ADP-ribose] polymerase 1, sequence (P09874 whole entry): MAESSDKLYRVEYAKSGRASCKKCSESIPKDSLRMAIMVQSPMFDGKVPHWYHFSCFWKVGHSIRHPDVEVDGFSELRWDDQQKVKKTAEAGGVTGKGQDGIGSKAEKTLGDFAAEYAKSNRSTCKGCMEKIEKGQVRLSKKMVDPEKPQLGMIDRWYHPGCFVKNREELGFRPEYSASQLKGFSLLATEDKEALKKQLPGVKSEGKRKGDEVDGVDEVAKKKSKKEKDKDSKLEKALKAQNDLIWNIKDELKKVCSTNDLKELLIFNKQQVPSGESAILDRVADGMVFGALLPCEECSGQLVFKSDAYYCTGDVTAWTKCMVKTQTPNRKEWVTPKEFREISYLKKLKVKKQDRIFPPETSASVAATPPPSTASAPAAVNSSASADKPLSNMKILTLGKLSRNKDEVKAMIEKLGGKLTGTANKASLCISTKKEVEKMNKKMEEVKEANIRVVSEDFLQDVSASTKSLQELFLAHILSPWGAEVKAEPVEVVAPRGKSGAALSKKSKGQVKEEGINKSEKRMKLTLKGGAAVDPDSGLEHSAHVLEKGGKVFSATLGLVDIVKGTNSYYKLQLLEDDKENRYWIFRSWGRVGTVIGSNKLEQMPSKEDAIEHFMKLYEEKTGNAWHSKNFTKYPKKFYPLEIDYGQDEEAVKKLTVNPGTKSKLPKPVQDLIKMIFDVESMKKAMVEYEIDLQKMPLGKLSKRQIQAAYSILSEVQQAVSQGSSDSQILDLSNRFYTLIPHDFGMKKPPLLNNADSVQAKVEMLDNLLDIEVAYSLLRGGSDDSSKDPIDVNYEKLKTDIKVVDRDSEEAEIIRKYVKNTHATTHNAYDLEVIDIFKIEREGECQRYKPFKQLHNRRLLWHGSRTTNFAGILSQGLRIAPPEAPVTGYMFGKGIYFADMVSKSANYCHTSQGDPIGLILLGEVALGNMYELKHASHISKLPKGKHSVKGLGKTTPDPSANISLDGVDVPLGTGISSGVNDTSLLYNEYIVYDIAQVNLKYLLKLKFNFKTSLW

[6] = molecular target: PARP (mixed cellular PARPs); assay: Inhibition of mixed PARPs from broken cell nuclei by broken nuclei assay
[7] = molecular target: PARP (mixed cellular PARPs); assay: as above; remark: listed apart in the source
CT26 = assay: Inhibition of mouse CT26 cell proliferation at 1 mM; assay type: functional

## Cc1ccc(C(=O)Nc2cccc3c(=O)[nH]ccc23)cc1
[1]
  IC50: 6.5 µM

## O=C(Oc1cccc2c(O)nccc12)c1ccccc1
[2]
  Ratio IC50: 2.75
[3]
  Ratio: 60

## O=C(Nc1cccc2c(=O)[nH]ccc12)c1ccc(I)cc1
[1]
  IC50: 1.3 µM

## O=c1[nH]c(CCCCN2CC=C(c3ccc(F)cc3)CC2)nc2c(Cl)cccc12
[1]
  IC50: 0.5 µM

## O=C(Nc1cccc2c(=O)[nH]ccc12)c1ccc(C(F)(F)F)cc1
[1]
  IC50: 3.3 µM

## O=C(Nc1cccc2c(=O)[nH]ccc12)C1CCCCC1
[4]
  IC50: > 200 µM
[1]
  IC50: 27.9 µM
MDA-MB-231
  IC50: > 200 µM
LNCaP
  IC50: > 200 µM
HT-29
  IC50: > 200 µM
[5]
  IC50: > 80 µM

## O=C(O)c1cccc2c(=O)[nH]ccc12
[1]
  IC50: > 25 µM
[6]
  IC50: < 13 µM
[5]
  IC50: > 25 µM
[7]
  IC50: < 13 µM

## O=C(Nc1cccc2c(=O)[nH]ccc12)C12CC3CC(CC(C3)C1)C2
[4]
  IC50: > 200 µM
[1]
  IC50: 19.9 µM
MDA-MB-231
  IC50: > 200 µM
LNCaP
  IC50: 42 µM
HT-29
  IC50: > 200 µM
[5]
  IC50: > 50 µM

## O=C(Nc1cccc2c(=O)[nH]ccc12)c1ccc([N+](=O)[O-])cc1
[1]
  IC50: 1.6 µM

## O=C(Nc1cccc2c(=O)[nH]ccc12)c1ccc(F)cc1
[1]
  IC50: 3.6 µM

## O=C(Oc1cccc2c(=O)[nH]ccc12)c1ccccc1
[1]
  IC50: 1.5 µM
[5]
  IC50: 4.1 µM

## Cc1ccccc1C(=O)Nc1cccc2c(=O)[nH]ccc12
[1]
  IC50: 5.6 µM

## O=C(Oc1cccc2c1CCNC2=O)c1ccccc1
[3]
  Ratio: 16

## Nc1cccc2c(=O)n(CCC(=O)O)ccc12
[1]
  IC50: 1.6 µM

## O=C(Nc1cccc2c(=O)[nH]ccc12)c1ccc(Cl)cc1
[1]
  IC50: 3.9 µM

## CC(C)(C)C(=O)Nc1cccc2c(=O)[nH]ccc12
[2]
  Ratio IC50: > 3.4
[4]
  IC50: > 200 µM
[1]
  IC50: 29 µM
MDA-MB-231
  IC50: > 200 µM
LNCaP
  IC50: > 200 µM
HT-29
  IC50: > 200 µM
[5]
  IC50: > 100 µM

## O=C(O)/C=C/c1cccc2c(=O)[nH]ccc12
[1]
  IC50: 4.7 µM
[7]
  IC50: < 11 µM

## N#Cc1ccc(-c2cnc3cccc(C(N)=O)c3n2)cc1
[3]
  Ratio: 12

## O=C(Nc1cccc2c(=O)[nH]ccc12)c1cccs1
[1]
  IC50: 7 µM

## Nc1cccc2c(=O)[nH]ccc12
[2]
  Ratio IC50: 0.9
[4]
  IC50: > 200 µM
[1]
  IC50: 1.05 µM and 1 µM
MDA-MB-231
  IC50: 170 µM
LNCaP
  IC50: > 200 µM
HT-29
  IC50: > 200 µM
[5]
  IC50: 0.94 µM and 1 µM
CT26
  inhibition at 1000 µM: 40%

## O=C(Nc1cccc2c(=O)[nH]ccc12)c1ccccc1I
[1]
  IC50: 3.2 µM

## NC(=O)c1cccc2nc(-c3ccc(Cl)cc3)cnc12
[1]
  IC50: 0.09 µM

## Cc1cc2c(NC(=O)c3ccccc3)cccc2c(=O)[nH]1
[1]
  IC50: 6.3 µM

## O=C(Nc1cccc2c(=O)[nH]ccc12)c1ccccc1
[4]
  IC50: > 200 µM
[1]
  IC50: 1.5 µM
MDA-MB-231
  IC50: 139 µM
LNCaP
  IC50: 98 µM
HT-29
  IC50: > 200 µM

## O=C(O)CNc1cccc2c(=O)[nH]ccc12
[1]
  IC50: 0.55 µM

## O=C(O)CCc1cccc2c(=O)[nH]ccc12
[1]
  IC50: 3 µM
